Laboratory results: patent US5229371A, “Chemical modification of elsamicin A at the 3' and/or 4' OH groups” (Bristol-Myers Squibb Company, priority 1992, dated 1993)
≈ marks a conversion by molar mass, not a printed value. Where two headings read alike, the source gives them in different places.

Columns and labels:
leukemia P388 [1] = details: P388, in vitro; cited from earlier work
B16-F10 melanoma cells = test: cells; details: Mus musculus, B16-F10, 72 h, read-out: Cytotoxicity IC50
Method: For in vitro cytotoxicity experiment, murine melanoma B16-F10 cells were grown and maintained in Eagle's minimum essential medium (Nissui), which contains kanamycin (60 μg/ml), supplemented with heat-inactivated fetal calf serum (10%) and non-essential amino acids (0.6%) at 37° C. under a humidified atmosphere in a 5% CO2 incubator. Exponentially growing B16-F10 cells were harvested, counted and suspended in the culture medium at the concentration of 2.0×10^4 cells/ml. The cell suspension (180 μl) was planted into wells of a 96-well microtiter plate and incubated for 24 hours. Test compound (20 μl) were added to the wells and the plates were further incubated for 72 hours. The cytotoxic activity was colorimetrically determined at 540 nm after staining viable cells with neutral red solution.

lymphoid leukemia L1210 [2] = details: L1210, in vitro; cited from earlier work
B16 melanoma = test: In vivo antitumor activity against B16 melanoma in mice (Q4Dx3, ip); set-up: species or system mouse (male BDF1); details: for T/C % of MST / No. of survivors/tested on day 50: Q4D × 3, ip
Method: (§1) In vivo antitumor activity of the above five derivatives was tested in the lymphocytic leukemia P388 and melanoma B16 systems. Female CDF1 (for P388) and male BDF1 (for B16) mice were inoculated by ip injection at 10^6 P388 cells and 0.5 ml of a 10% B16 brei per mouse, respectively (day 0).
(§2) The percent increase of median survival time (MST) of treated animals over that of untreated control animals was determined and reported as T/C %.

lymphoid leukemia L1210 [3] = details: L1210, in vivo; cited from earlier work
P388 leukemia = test: In vivo antitumor activity against lymphocytic leukemia P388 in mice (Q1Dx3, ip); set-up: species or system mouse (female CDF1); details: for T/C % of MST: Q1D × 3, ip; for minimum effective dose (MED) compared with elsamicin A: T/C ≥125 significant
Method: as §1, §2

melanotic melanoma B16 [4] = details: B16, in vivo; cited from earlier work
leukemia P388 [5] = details: P388, in vivo; cited from earlier work
anaerobic bacteria = details: cited from earlier work
[6] = system: aerobic gram-positive bacteria; details: cited from earlier work
melanotic melanoma B16 [7] = details: B16, in vitro; cited from earlier work

Row | Structure (SMILES) | IC50 (B16-F10 melanoma cells) | T/C % of MST (B16 melanoma; B16, 0.1 mg/kg/day) | T/C % of MST (B16 melanoma; B16, 0.3 mg/kg/day) | T/C % of MST (B16 melanoma; B16, 1 mg/kg/day) | No. of survivors/tested on day 50 (B16 melanoma; B16, 3 mg/kg/day) | T/C % of MST (B16 melanoma; B16, 3 mg/kg/day) | No. of survivors/tested on day 50 (B16 melanoma; B16, 10 mg/kg/day) | T/C % of MST (B16 melanoma; B16, 10 mg/kg/day) | T/C % of MST (P388 leukemia; P388, 0.1 mg/kg/day) | T/C % of MST (P388 leukemia; P388, 0.3 mg/kg/day) | T/C % of MST (P388 leukemia; P388, 1 mg/kg/day) | T/C % of MST (P388 leukemia; P388, 3 mg/kg/day) | T/C % of MST (P388 leukemia; P388, 10 mg/kg/day) | T/C % of MST (P388 leukemia; P388, 20 mg/kg/day) | minimum effective dose (MED) compared with elsamicin A (P388 leukemia; P388 system) | also measured
1 | COC1C(N)C(OC2C(Oc3cccc4c(O)c5c(=O)oc6ccc(C)c7c(=O)oc(c34)c5c67)OC(C)C(O)C2(C)O)OC(C)C1O (stereo not shown) [Compound 1, Elsamicin A] | 0.03 µg/mL (≈ 0.0459 µM) | 116% | 139% | 179% | 2/12 | ≥ 216% | 2/12 | ≥ 298% | 123% | 140% | 155% | 180% | 190% | Tox | – | activity against murine tumor cells (leukemia P388 [1]): exerts activity; activity against murine tumor cells (lymphoid leukemia L1210 [2]): exerts activity; activity against murine tumor cells (lymphoid leukemia L1210 [3]): exerts activity; activity against murine tumor cells (melanotic melanoma B16 [4]): exerts activity; activity against murine tumor cells (leukemia P388 [5]): exerts activity; antibacterial activity (anaerobic bacteria): exhibits antibacterial activity; antibacterial activity [6]: exhibits antibacterial activity; activity against murine tumor cells (melanotic melanoma B16 [7]): exerts activity
2 | COC1C(N)C(OC2C(Oc3cccc4c(O)c5c(=O)oc6ccc(C)c7c(=O)oc(c34)c5c67)OC(C)C3OC(C)(C)OC32C)OC(C)C1O (stereo not shown) [Compound 6a, 3',4'-O-Isopropylideneelsamicin A] | 0.025 µg/mL (≈ 0.036 µM) | 105% | 116% | 166% | – | 192% | – | 82% | 120% | 140% | 170% | 210% | – | – | as active as the parent compounds | –
3 | COC1C(N)C(OC2C(Oc3cccc4c(O)c5c(=O)oc6ccc(C)c7c(=O)oc(c34)c5c67)OC(C)C3OC4(CCCCC4)OC32C)OC(C)C1O (stereo not shown) [Compound 6b, 3',4'-O-Cyclohexylideneelsamicin A] | 0.04 µg/mL (≈ 0.0545 µM) | – | 111% | 132% | – | 175% | – | 200% | – | 120% | 140% | 175% | 165% | – | – | –
4 | COC1C(N)C(OC2C(Oc3cccc4c(O)c5c(=O)oc6ccc(C)c7c(=O)oc(c34)c5c67)OC(C)C3OC(c4ccccc4)OC32C)OC(C)C1O (stereo not shown) [Compound 6c, 3',4'-O-Benzylideneelsamicin A] | 0.07 µg/mL (≈ 0.0944 µM) | 121% | 114% | 136% | – | 179% | – | 186% | 110% | 130% | 150% | 165% | 180% | Tox | as active as the parent compounds | –
5 | COC1OC2C(C)OC(Oc3cccc4c(O)c5c(=O)oc6ccc(C)c7c(=O)oc(c34)c5c67)C(OC3OC(C)C(O)C(OC)C3N)C2(C)O1 (stereo not shown) [Compound 6d, 3',4'-O-Methoxymethylideneelsamicin A] | 0.05 µg/mL (≈ 0.0719 µM) | 120% | 137% | 167% | – | 283% | 3/4 | ≥ 333% | 124% | 137% | 167% | 167% | 224% | Tox | as active as the parent compounds | response / therapeutic activity (in words) (B16 melanoma; B16 system): extremely potent therapeutic activity; T/C % values compared with elsamicin A (1) (B16 melanoma; B16 system, 3 and 10 mg/kg/day): higher T/C % values
6 | COC1C(N)C(OC2C(Oc3cccc4c(O)c5c(=O)oc6ccc(C)c7c(=O)oc(c34)c5c67)OC(C)C(OC3CCCCO3)C2(C)O)OC(C)C1O (stereo not shown) [Compound 8, 4'-O-Tetrahydropyranylelsamicin A] | 0.04 µg/mL (≈ 0.0542 µM) | 133% | 159% | 248% | 1/4 | ≥ 281% | 2/4 | ≥ 330% | 130% | 145% | 168% | 190% | 225% | Tox | three times more potent | No. of survivors/tested on day 50 (B16 melanoma; B16, 20 mg/kg/day): 3/4; T/C % of MST (B16 melanoma; B16, 20 mg/kg/day): ≥ 370%; MED and T/C % values compared with elsamicin A (1) (B16 melanoma; B16 system): better than elsamicin A (1); survivors on day 50 (in words) (B16 melanoma; B16 system, 3~20 mg/kg/day): Some survivors; T/C % values (in words) (P388 leukemia; P388 system): high T/C % values
